Test results as given in ChEMBL document CHEMBL6120977, “Structure-Affinity-Pharmacokinetics Relationships of Novel 18F-Labeled 1,4-Diazepane Derivatives for Orexin 1 Receptor Imaging” (J Med Chem, 2024).

Key:
[1] = Apparent permeability in pig LLC-PK1 cells; assay type: ADME, cell-based, Sus scrofa
[2] = Selectivity ratio of Ki for OX2R (unknown origin) transfected in CHO cells to Ki for OX1R (unknown origin) transfected in CHO cells; assay type: cell-based
[3] = molecular target: T1, Orexin/Hypocretin receptor type 1 (Homo sapiens, UniProt O43613); experiment: Displacement of […]5IBOM from OX1R (unknown origin) transfected in CHO cells assessed as inhibition constant incubated for 1.5 hrs by automated gamma-counter analysis; assay type: cell-based
T1 sequence (O43613 whole entry): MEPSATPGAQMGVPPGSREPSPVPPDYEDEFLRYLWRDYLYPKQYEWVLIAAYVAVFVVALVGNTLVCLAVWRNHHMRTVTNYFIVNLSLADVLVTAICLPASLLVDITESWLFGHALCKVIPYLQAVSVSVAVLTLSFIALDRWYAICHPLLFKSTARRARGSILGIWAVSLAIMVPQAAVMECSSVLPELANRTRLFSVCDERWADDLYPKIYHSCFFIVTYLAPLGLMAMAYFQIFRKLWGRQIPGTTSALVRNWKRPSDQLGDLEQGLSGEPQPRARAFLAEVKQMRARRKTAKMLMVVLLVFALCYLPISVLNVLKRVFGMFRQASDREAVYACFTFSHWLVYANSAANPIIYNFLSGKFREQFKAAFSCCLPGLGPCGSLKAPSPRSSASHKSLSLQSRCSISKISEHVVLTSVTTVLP

Homo sapiens = species on record: Homo sapiens; experiment: Selectivity ratio of IC50 for recombinant human OX2R extracted from HEK293T cell membrane to IC50 for recombinant human OX1R extracted from HEK293T cell membrane
Orexin receptor type 2 [4] = molecular target: T2, Orexin receptor type 2 (Homo sapiens, UniProt O43614); experiment: Displacement of […]5IBOM from OX2R (unknown origin) transfected in CHO cells assessed as inhibition constant incubated for 1.5 hrs by automated gamma-counter analysis; assay type: cell-based
T2 sequence (O43614 whole entry): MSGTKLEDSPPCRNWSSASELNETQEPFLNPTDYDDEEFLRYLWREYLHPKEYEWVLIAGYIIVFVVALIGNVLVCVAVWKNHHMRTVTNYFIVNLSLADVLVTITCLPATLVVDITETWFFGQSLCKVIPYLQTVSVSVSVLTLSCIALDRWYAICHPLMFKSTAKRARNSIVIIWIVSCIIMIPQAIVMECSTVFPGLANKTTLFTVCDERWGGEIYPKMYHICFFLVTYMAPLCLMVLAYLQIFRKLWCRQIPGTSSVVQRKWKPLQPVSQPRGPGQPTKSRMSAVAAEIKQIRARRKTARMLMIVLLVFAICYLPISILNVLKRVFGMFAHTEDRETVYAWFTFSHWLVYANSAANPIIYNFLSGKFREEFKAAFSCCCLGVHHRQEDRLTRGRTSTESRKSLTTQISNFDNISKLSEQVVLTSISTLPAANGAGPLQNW

Orexin receptor type 2 [5] = molecular target: T2, Orexin receptor type 2; experiment: Displacement of [3H]EMPA from recombinant human OX2R extracted from HEK293T membrane by radioligand binding assay; assay type: cell membranes
[6] = molecular target: T1, Orexin/Hypocretin receptor type 1; experiment: Displacement of [3H]SB-674042 from recombinant human OX1R extracted from HEK293T membrane by radioligand binding assay; assay type: cell membranes

For `Cc1ccc(-n2nccn2)c(C(=O)N2CCN(c3nc4cc(Cl)ccc4o3)CC[C@H]2C)c1` [SUVOREXANT], which Papp [1] is on record?
The Papp was 34.6 ×10⁻⁶ cm/s.

With `Cc1ccc(-n2nccn2)c(C(=O)N2CCCN(c3nc4cc(Cl)ccc4o3)C[C@@H]2C)c1` as the molecule, how does the Ratio Ki [2] read?
The Ratio Ki was 8.71.

What about the Ki [3] of the same molecule?
Its Ki is 1.12 nM.

And the Ratio IC50 (Homo sapiens)?
The Ratio IC50 was 2.4.

And the Ki (Orexin receptor type 2 [4])?
The Ki was 9.79 nM.

What about the IC50 (Orexin receptor type 2 [5]) of the same molecule?
Its IC50 is 2 nM.

What about the IC50 [6] of the same molecule?
The IC50 was 0.83 nM.

For `CC[C@H](C)[C@H]1CN(c2nc3cc(Cl)ccc3o2)CCCN1C(=O)c1cc(C)ccc1-n1nccn1`, which Ratio IC50 (Homo sapiens) is on record?
Its Ratio IC50 is 75.

What about the IC50 (Orexin receptor type 2 [5]) of the same molecule?
Its IC50 is 54 nM.

And the IC50 [6]?
The IC50 was 0.72 nM.
